Toxic doses and inconclusive results are not listed. Rule as the data show it: active = T/C of 150% or more; inactive = T/C below 125%.
Tested on: L1210 leukemia ip in BDF1 mice, survival T/C
Test: NCI In Vivo Anticancer Drug Screen. Data for tumor model L1210 Leukemia (intraperitoneal) in B6D2F1 (BDF1) mice
Conditions: endpoint: mean survival time, higher = longer survival
Summary of the method: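 Transplantable tumor model; survival measured in treated vs vehicle control mice. Value = treated/control.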

[1] = dose: 25.0 mg/kg/injection, schedule: Q01DX009 (ip), vehicle: saline with Tween-80
[2] = dose: 50.0 mg/kg/injection, schedule: Q01DX009 (ip), vehicle: saline with Tween-80
[3] = dose: 100.0 mg/kg/injection, schedule: Q01DX009 (ip), vehicle: saline with Tween-80
[4] = dose: 100.0 mg/kg/injection, schedule: Q01DX009 (ip), vehicle: saline
[5] = dose: 100.0 mg/kg/injection, schedule: Q04DX003 (ip), vehicle: saline with Tween-80
[6] = dose: 200.0 mg/kg/injection, schedule: Q01DX009 (ip), vehicle: saline with Tween-80
[7] = dose: 200.0 mg/kg/injection, schedule: Q01DX009 (ip), vehicle: saline
[8] = dose: 200.0 mg/kg/injection, schedule: Q04DX003 (ip), vehicle: saline with Tween-80
[9] = dose: 400.0 mg/kg/injection, schedule: Q04DX003 (ip), vehicle: saline with Tween-80
[10] = dose: 100.0 mg/kg/injection, schedule: Q01DX009 (ip), vehicle: Klucel (hydroxypropylcellulose) (HPC)
[11] = dose: 100.0 mg/kg/injection, schedule: Q04DX003 (ip), vehicle: Klucel (hydroxypropylcellulose) (HPC)
[12] = dose: 200.0 mg/kg/injection, schedule: Q01DX009 (ip), vehicle: Klucel (hydroxypropylcellulose) (HPC)
[13] = dose: 200.0 mg/kg/injection, schedule: Q04DX003 (ip), vehicle: Klucel (hydroxypropylcellulose) (HPC)
[14] = dose: 100.0 mg/kg/injection, schedule: Q04DX003 (ip), vehicle: saline
[15] = dose: 200.0 mg/kg/injection, schedule: Q04DX003 (ip), vehicle: saline
[16] = dose: 400.0 mg/kg/injection, schedule: Q01DX009 (ip), vehicle: Klucel (hydroxypropylcellulose) (HPC)
[17] = dose: 400.0 mg/kg/injection, schedule: Q04DX003 (ip), vehicle: saline
[18] = dose: 400.0 mg/kg/injection, schedule: Q04DX003 (ip), vehicle: Klucel (hydroxypropylcellulose) (HPC)
[19] = dose: 25.0 mg/kg/injection, schedule: Q04DX003 (ip), vehicle: saline
[20] = dose: 50.0 mg/kg/injection, schedule: Q04DX003 (ip), vehicle: saline
[21] = dose: 100.0 mg/kg/injection, schedule: Q01DX001 (ip), vehicle: saline

Measured: T/C

Cc1ccc(C)c(C(=O)CCC(=O)O)c1
inactive: [1] 100 % of control | [2] 96 % of control | [3] 105 % of control | [4] 95 % of control | [5] 91 % of control | [6] 94 % of control | [7] 95 % of control | [8] 92 % of control | dose: 400.0 mg/kg/injection, schedule: Q01DX009 (ip), vehicle: saline 95 % of control | [9] 97 % of control

CN(C)[C@@H]1C(=O)C(C(=O)NCNc2nc(=S)c3[nH]cnc3[nH]2)=C(O)[C@@]2(O)C(=O)C3=C(O)c4c(O)cccc4[C@@](C)(O)[C@H]3C[C@@H]12
inactive: dose: 75.0 mg/kg/injection, schedule: Q01DX Z (ip), vehicle: carboxymethylcellulose (CMC) 119 % of control | dose: 125.0 mg/kg/injection, schedule: Q01DX Z (ip), vehicle: carboxymethylcellulose (CMC) 121 % of control | dose: 250.0 mg/kg/injection, schedule: Q01DX Z (ip), vehicle: carboxymethylcellulose (CMC) 95 % of control

Cc1c(C)c(C)c(CSC(N)=Nc2ccccc2)c(C)c1C
inactive: [2] 98 % of control | [3] 102 % of control | [6] 102 % of control

Nc1ccc(CC2=C(Br)CNC(=O)N2)cc1
inactive: dose: 100.0 mg/kg/injection, schedule: Q01DX001 (ip), vehicle: Klucel (hydroxypropylcellulose) (HPC) 102 % of control | dose: 200.0 mg/kg/injection, schedule: Q01DX001 (ip), vehicle: Klucel (hydroxypropylcellulose) (HPC) 103 % of control

Cc1cc2[nH]c(=O)c(=O)[nH]c2cc1C
inactive: dose: 50.0 mg/kg/injection, schedule: Q04DX003 (ip), vehicle: Klucel (hydroxypropylcellulose) (HPC) 104 % of control | [10] 105 % of control | [11] 94 % of control | [12] 100 % of control | [13] 100 % of control

Cc1cccc(C)c1NC(=O)OCCOc1ccc(Cl)cc1Cl
inactive: [2] 90 % of control | [3] 95 % of control | [6] 95 % of control

CC1(C)C(=O)C2CCC1C2 (stereo not drawn)
inactive: dose: 100.0 mg/kg/injection, schedule: Q04DX002 (ip), vehicle: Klucel (hydroxypropylcellulose) (HPC) 90 % of control | dose: 200.0 mg/kg/injection, schedule: Q04DX002 (ip), vehicle: Klucel (hydroxypropylcellulose) (HPC) 87 % of control | dose: 400.0 mg/kg/injection, schedule: Q04DX002 (ip), vehicle: Klucel (hydroxypropylcellulose) (HPC) 103 % of control

CC(Cc1ccc2c(c1)OCO2)[N+](=O)[O-] (stereo not drawn)
inactive: dose: 150.0 mg/kg/injection, schedule: Q04DX003 (ip), vehicle: saline with Tween-80 102 % of control | dose: 300.0 mg/kg/injection, schedule: Q04DX003 (ip), vehicle: saline with Tween-80 100 % of control

c1ccc(N=Nc2ccc(C3=NCCO3)cc2)cc1
inactive: [10] 91 % of control | [14] 95 % of control | [12] 88 % of control | [15] 101 % of control | [16] 87 % of control | [17] 94 % of control

O=c1cc(O)nc2ccccn12
inactive: [10] 99 % of control | [11] 95 % of control | [12] 97 % of control | [13] 96 % of control | [16] 92 % of control | [18] 91 % of control

C=CC(=C)CCC=C(C)C
inactive: [19] 101 % of control | [20] 101 % of control | [14] 97 % of control | [15] 87 % of control | [17] 86 % of control

c1ccc2occc2c1
inactive: [21] 103 % of control

O=C1CCCC/C1=C/c1ccccc1Cl
inactive: [10] 97 % of control | [11] 104 % of control | [12] 105 % of control | [13] 104 % of control | [16] 100 % of control | [18] 97 % of control

N#CCN1C(=O)c2ccccc2S1(=O)=O
inactive: dose: 222.0 mg/kg/injection, schedule: Q01DX Z (ip), vehicle: methylcellulose (MC) 110 % of control | dose: 333.0 mg/kg/injection, schedule: Q01DX Z (ip), vehicle: methylcellulose (MC) 113 % of control | dose: 500.0 mg/kg/injection, schedule: Q01DX Z (ip), vehicle: methylcellulose (MC) 102 % of control

CC(=O)CC(=O)NCC(CCN(C)C)(c1cccc2ccccc12)C(C)C (stereo not drawn)
inactive: dose: 12.5 mg/kg/injection, schedule: Q04DX003 (ip), vehicle: saline 105 % of control | [19] 97 % of control | [20] 99 % of control

CC(=O)O[C@H]1CC[C@@]2(C)C(=CC[C@H]3[C@@H]4C[C@@H](N5CC5)[C@H](C(C)=O)[C@@]4(C)CC[C@@H]32)C1
inactive: dose: 50.0 mg/kg/injection, schedule: Q01DX001 (sc), vehicle: steriod suspending solution 100 % of control | dose: 100.0 mg/kg/injection, schedule: Q01DX001 (sc), vehicle: steriod suspending solution 102 % of control | dose: 200.0 mg/kg/injection, schedule: Q01DX001 (sc), vehicle: steriod suspending solution 107 % of control | dose: 400.0 mg/kg/injection, schedule: Q01DX001 (sc), vehicle: steriod suspending solution 117 % of control

COc1ccc(N=C(N)N=C(N)N)cc1
inactive: dose: 50.0 mg/kg/injection, schedule: Q01DX001 (ip), vehicle: saline 111 % of control | [21] 104 % of control | [4] 91 % of control | dose: 200.0 mg/kg/injection, schedule: Q01DX001 (ip), vehicle: saline 95 % of control | [7] 92 % of control

NC1CCC(c2ccccc2)(c2ccccc2)C1=O (stereo not drawn)
inactive: dose: 75.0 mg/kg/injection, schedule: Q01DX001 (ip), vehicle: saline 100 % of control | dose: 150.0 mg/kg/injection, schedule: Q01DX001 (ip), vehicle: saline 102 % of control

COc1ccc(Cl)cc1NC(=O)c1ccco1
inactive: [10] 89 % of control | [12] 87 % of control | [16] 97 % of control

N/C(N=Nc1ccccc1)=N\[N+](=O)[O-]
inactive: [11] 100 % of control | [13] 105 % of control | [18] 86 % of control

CCCCOCCOC(=O)C1OC1(C)c1ccccc1 (stereo not drawn)
inactive: dose: 100.0 mg/kg/injection, schedule: Q04DX002 (ip), vehicle: saline with Tween-80 100 % of control | dose: 200.0 mg/kg/injection, schedule: Q04DX002 (ip), vehicle: saline with Tween-80 102 % of control | dose: 400.0 mg/kg/injection, schedule: Q04DX002 (ip), vehicle: saline with Tween-80 106 % of control

CCOC(=O)CCC1(CCC(=O)OCC)c2ccccc2-c2ccccc21
inactive: [10] 97 % of control | [12] 100 % of control | [16] 94 % of control

COc1ccc2c3c(ccc2c1)C1=C(C(=O)O)CC(=O)C1(C)CC3 (stereo not drawn)
inactive: dose: 100.0 mg/kg/injection, schedule: Q01DX009 (sc), vehicle: steriod suspending solution 114 % of control | dose: 100.0 mg/kg/injection, schedule: Q04DX003 (sc), vehicle: steriod suspending solution 117 % of control | dose: 200.0 mg/kg/injection, schedule: Q01DX009 (sc), vehicle: steriod suspending solution 101 % of control | dose: 200.0 mg/kg/injection, schedule: Q04DX003 (sc), vehicle: steriod suspending solution 97 % of control | dose: 400.0 mg/kg/injection, schedule: Q01DX009 (sc), vehicle: steriod suspending solution 95 % of control | dose: 400.0 mg/kg/injection, schedule: Q04DX003 (sc), vehicle: steriod suspending solution 101 % of control

CS(=O)(=O)c1nc(Cl)nc(C(Cl)(Cl)Cl)c1Cl
inactive: [1] 101 % of control | [2] 95 % of control

CC/C(=C/c1cccc(OC)c1OC)[N+](=O)[O-]
inactive: dose: 12.5 mg/kg/injection, schedule: Q01DX009 (ip), vehicle: saline with Tween-80 105 % of control | [1] 98 % of control | [2] 96 % of control | [5] 107 % of control | [8] 90 % of control

CCC(CC)(COS(=O)(=O)c1ccc(C)cc1)COS(=O)(=O)c1ccc(C)cc1
inactive: [10] 93 % of control | [12] 89 % of control | [13] 94 % of control | [16] 88 % of control | [18] 96 % of control

O=C(O)C1C2CCC1C2 (stereo not drawn)
inactive: [5] 98 % of control | [8] 101 % of control | [9] 95 % of control

Cc1ccc(S(=O)(=O)N/N=C2/C(=O)C3CCC2C3)cc1 (stereo not drawn)
inactive: dose: 50.0 mg/kg/injection, schedule: Q01DX001 (ip), vehicle: saline with Tween-80 92 % of control | dose: 100.0 mg/kg/injection, schedule: Q01DX001 (ip), vehicle: saline with Tween-80 92 % of control | dose: 200.0 mg/kg/injection, schedule: Q01DX001 (ip), vehicle: saline with Tween-80 87 % of control

From PubChem BioAssay AID248 (DTP/NCI, 2004)
